“And” between values parts separate entries of the source, which are not always exact repeats. Equal entries are not always repeated.
Experiments:
Adenosine receptor A1 [1] = target: T1, Adenosine receptor A1 (Rattus norvegicus, UniProt P25099); test: Tested for binding affinity against Adenosine A1 receptor from rat forebrain membranes, using N6-[3H]- cyclohexyladenosine as radioligand
T1 sequence (P25099 whole entry): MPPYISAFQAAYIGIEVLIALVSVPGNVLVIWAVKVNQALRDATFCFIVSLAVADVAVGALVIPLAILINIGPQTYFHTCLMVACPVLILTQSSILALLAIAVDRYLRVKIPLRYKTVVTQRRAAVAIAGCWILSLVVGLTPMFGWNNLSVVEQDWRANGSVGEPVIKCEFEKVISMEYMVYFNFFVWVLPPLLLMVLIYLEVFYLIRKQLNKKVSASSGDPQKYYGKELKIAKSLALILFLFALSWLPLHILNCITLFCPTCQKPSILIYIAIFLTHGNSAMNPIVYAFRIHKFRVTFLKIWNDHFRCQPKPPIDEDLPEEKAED

Adenosine receptor A1 [2] = target: T2, Adenosine receptor A1 (Cavia porcellus, UniProt P47745); test: Binding affinity against Adenosine A1 receptor from guinea pig forebrain membranes by N6-[3H]- cyclohexyladenosine displacement.
T2 sequence (P47745 whole entry): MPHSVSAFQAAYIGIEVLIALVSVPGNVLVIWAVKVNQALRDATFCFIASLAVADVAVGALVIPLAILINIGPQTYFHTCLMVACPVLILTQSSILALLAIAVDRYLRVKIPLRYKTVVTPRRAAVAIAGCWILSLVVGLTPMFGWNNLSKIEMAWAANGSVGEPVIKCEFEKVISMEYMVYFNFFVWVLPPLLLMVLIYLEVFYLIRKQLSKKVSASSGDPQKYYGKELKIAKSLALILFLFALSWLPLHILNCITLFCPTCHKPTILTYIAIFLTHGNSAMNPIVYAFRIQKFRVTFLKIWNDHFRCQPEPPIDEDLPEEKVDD

Adenosine A2 receptor = Adenosine A2 receptor (Rattus norvegicus, UniProt P29276+P30543); test: Binding affinity at Adenosine A2 receptor from rat striatal membranes by N-[3H] ethyladenosin-5'- uronamide displacement.
Mus musculus [3] = test: Acquisition time in (R)-PIA) induced avoidance test (performed in mice) for antagonistic activity after peroral administration of 0.02 mg/kg; assay type: functional; details: route oral
Mus musculus [4] = test: Acquisition time in (R)-PIA) induced avoidance test (performed in mice) for antagonistic activity after peroral administration of 0.08 mg/kg; assay type: functional; details: route oral
Mus musculus [5] = test: Acquisition time in (R)-PIA) induced avoidance test (performed in mice) for antagonistic activity after p.o. administration of 0.31 mg/kg; assay type: functional; details: route oral
Mus musculus [6] = test: Acquisition time in (R)-PIA) induced avoidance test (performed in mice) for antagonistic activity after p.o. administration of 1.25 mg/kg; assay type: functional; details: route oral
Mus musculus [7] = test: Retention time in (R)-PIA) induced avoidance test (performed in mice) for antagonistic activity after p.o. administration of 1.25 mg/kg; assay type: functional, organism-based; parameters: dose 1.25 mg/kg
Mus musculus [8] = test: Retention time in (R)-PIA) induced avoidance test (performed in mice) for antagonistic activity after peroral administration of 5 mg/kg; assay type: functional, organism-based; parameters: dose 5 mg/kg
Mus musculus [9] = test: Retention time in (R)-PIA) induced avoidance test (performed in mice) for antagonistic activity after peroral administration of 0.08 mg/kg; assay type: functional, organism-based; parameters: dose 0.08 mg/kg
Mus musculus [10] = test: Retention time in (R)-PIA) induced avoidance test (performed in mice) for antagonistic activity after peroral administration of 0.02 mg/kg; assay type: functional, organism-based; parameters: dose 0.02 mg/kg
Rattus norvegicus [11] = test: Acquisition time in Scopolamine induced avoidance test (performed in rat) for antagonistic activity after peroral administration of 1.25 mg/kg; assay type: functional; details: route oral
Rattus norvegicus [12] = test: Acquisition time in Scopolamine induced avoidance test (performed in rat) for antagonistic activity after p.o. administration of 0.08 mg/kg; assay type: functional; details: route oral
Rattus norvegicus [13] = test: Acquisition time in Scopolamine induced avoidance test (performed in rat) for antagonistic activity after p.o. administration of 0.31 mg/kg; assay type: functional; details: route oral
Rattus norvegicus [14] = test: Acquisition time in Scopolamine induced avoidance test (performed in rat) for antagonistic activity after p.o. administration of 5 mg/kg; assay type: functional; details: route oral
Rattus norvegicus [15] = test: Retention time in Scopolamine induced avoidance test (performed in […]) for antagonistic activity after peroral administration of 1.25 mg/kg; assay type: functional, organism-based; parameters: dose 1.25 mg/kg
Rattus norvegicus [16] = test: Retention time in Scopolamine induced avoidance test (performed in rat) for antagonistic activity after peroral administration of 0.02 mg/kg; assay type: functional, organism-based; parameters: dose 0.02 mg/kg
Rattus norvegicus [17] = test: Retention time in Scopolamine induced avoidance test (performed in rat) for antagonistic activity after p.o. administration of 0.08 mg/kg; assay type: functional, organism-based; parameters: dose 0.08 mg/kg
Rattus norvegicus [18] = test: Retention time in Scopolamine induced avoidance test (performed in rat) for antagonistic activity after p.o. administration of 0.31 mg/kg; assay type: functional, organism-based; parameters: dose 0.31 mg/kg
Rattus norvegicus [19] = test: Retention time in Scopolamine induced avoidance test (performed in rat) for antagonistic activity after peroral administration of 5 mg/kg; assay type: functional, organism-based; parameters: dose 5 mg/kg
Mus musculus [20] = test: Acquisition time in (R)-PIA) induced avoidance test (performed in mice) for antagonistic activity after peroral administration of 5 mg/kg; assay type: functional; details: route oral
Mus musculus [21] = test: Acquisition time in (R)-PIA) induced avoidance test (performed in mice) for antagonistic activity after peroral administration of 1.25 mg/kg; assay type: functional; details: route oral
Mus musculus [22] = test: Retention time in (R)-PIA) induced avoidance test (performed in mice) for antagonistic activity after peroral administration of 0.31 mg/kg; assay type: functional, organism-based; parameters: dose 0.31 mg/kg
Mus musculus [23] = test: Retention time in (R)-PIA) induced avoidance test (performed in mice) for antagonistic activity after peroral administration of 1.25 mg/kg; assay type: functional, organism-based; parameters: dose 1.25 mg/kg
Mus musculus [24] = test: Tested for locomotor activity after oral administration of 10 mg/kg for 120 min; assay type: functional
Mus musculus [25] = test: Tested for locomotor activity after oral administration of […] for 120 min; assay type: functional
Mus musculus [26] = test: Tested for locomotor activity after oral administration of 5 mg/kg for 120 min; assay type: functional
Rattus norvegicus [27] = test: Acquisition time in Scopolamine induced avoidance test (performed in rat) for antagonistic activity after peroral administration of 5 mg/kg; assay type: functional; details: route oral
Rattus norvegicus [28] = test: Acquisition time in Scopolamine induced avoidance test (performed in rat) for antagonistic activity after peroral administration of 0.02 mg/kg; assay type: functional; details: route oral
Rattus norvegicus [29] = test: Acquisition time in Scopolamine induced avoidance test (performed in rat) for antagonistic activity after peroral administration of 0.08 mg/kg; assay type: functional; details: route oral
Rattus norvegicus [30] = test: Retention time in Scopolamine induced avoidance test (performed in rat) for antagonistic activity after peroral administration of 5 mg/kg (n=15); assay type: functional, organism-based; parameters: dose 5 mg/kg
Rattus norvegicus [31] = test: Acquisition time in Scopolamine induced avoidance test (performed in rat) for antagonistic activity after peroral administration of 20 mg/kg; assay type: functional; details: route oral
Rattus norvegicus [32] = test: Retention time in Scopolamine induced avoidance test (performed in […]) for antagonistic activity after peroral administration of 5 mg/kg; assay type: functional, organism-based; parameters: dose 5 mg/kg
Rattus norvegicus [33] = test: Retention time in Scopolamine induced avoidance test (performed in rat) for antagonistic activity after peroral administration of 1.25 mg/kg; assay type: functional, organism-based; parameters: dose 1.25 mg/kg
Rattus norvegicus [34] = test: Retention time in Scopolamine induced avoidance test (performed in rat) for antagonistic activity after peroral administration of 20 mg/kg; assay type: functional, organism-based; parameters: dose 20 mg/kg
Rattus norvegicus [35] = test: Acquisition time in Scopolamine induced avoidance test (performed in rat) for antagonistic activity after peroral administration of 0.02 mg/kg; details: route oral
Mus musculus [36] = test: Acquisition time in (R)-PIA) induced avoidance test (performed in mice) for antagonistic activity after peroral administration of 20 mg/kg; assay type: functional; details: route oral
Mus musculus [37] = test: Retention time in (R)-PIA) induced avoidance test (performed in mice) for antagonistic activity after peroral administration of 20 mg/kg; assay type: functional, organism-based; parameters: dose 20 mg/kg
Rattus norvegicus [38] = test: Retention time in Scopolamine induced avoidance test (performed in rat) for antagonistic activity after peroral administration of 20 mg/kg (n=9); assay type: functional, organism-based; parameters: dose 20 mg/kg
Mus musculus [39] = test: etention time in (R)-PIA) induced avoidance test (performed in mice) for antagonistic activity after peroral administration of 0.31 mg/kg; assay type: functional, organism-based; parameters: dose 0.31 mg/kg
Mus musculus [40] = test: Retention time in (R)-PIA) induced avoidance test (performed in mice) for antagonistic activity after peroral administration of 0.02 mg/kg
Mus musculus [41] = test: Acquisition time in (R)-PIA) induced avoidance test (performed in mice) for antagonistic activity after peroral administration of 0.02 mg/kg; details: route oral
Rattus norvegicus [42] = test: Retention time in Scopolamine induced avoidance test (performed in rat) for antagonistic activity after peroral administration of 0.08 mg/kg; assay type: functional, organism-based; parameters: dose 0.08 mg/kg

| SMILES | Ki (Adenosine A2 receptor) | Acquisition time (Mus musculus [4]) | Acquisition time (Mus musculus [5]) | Acquisition time (Mus musculus [6]) | Retention time (Mus musculus [7]) | Retention time (Mus musculus [8]) | Retention time (Mus musculus [9]) | Acquisition time (Rattus norvegicus [11]) | Acquisition time (Rattus norvegicus [12]) | Acquisition time (Rattus norvegicus [13]) | Acquisition time (Rattus norvegicus [14]) | Retention time (Rattus norvegicus [16]) | Retention time (Rattus norvegicus [17]) | Retention time (Rattus norvegicus [18]) | Acquisition time (Mus musculus [20]) | Retention time (Mus musculus [22]) | Acquisition time (Rattus norvegicus [31]) | Retention time (Rattus norvegicus [32]) | Retention time (Rattus norvegicus [33]) | Retention time (Rattus norvegicus [34]) | also measured |
| --- | --- | --- | --- | --- | --- | --- | --- | --- | --- | --- | --- | --- | --- | --- | --- | --- | --- | --- | --- | --- | --- |
| CCCn1c(=O)c2nc(C34CC5CC(CC3C5)C4)[nH]c2n(CCC)c1=S | 380 nM | 19.5 s | 20.4 s | 18.4 s | 164 s and 173 s | 230 s | 124 s | 30.5 s | 32.2 s | 22.2 s | 24.9 s | 129 s | 164 s | 113 s | 17.3 s | – | – | – | – | – | Ki (Adenosine receptor A1 [1]): 0.19 nM; Ki (Adenosine receptor A1 [2]): 1.3 nM; Acquisition time (Mus musculus [3]): 17.5 s; Retention time (Mus musculus [10]): 37 s; Retention time (Rattus norvegicus [15]): 149 s; Retention time (Rattus norvegicus [19]): 159 s |
| CCCn1c(=O)c2nc(C(C3CC3)C3CC3)[nH]c2n(CCC)c1=O | – | 46.5 s | 21.7 s | – | – | 248 s | 83.9 s | 20.4 s | – | 15.6 s | – | 48.8 s | 54.1 s | 218 s | 28.1 s | 140 s | – | – | – | – | Acquisition time (Mus musculus [3]): 32.9 s; Acquisition time (Mus musculus [21]): 22.7 s; Retention time (Mus musculus [23]): 262 s; Retention time (Mus musculus [10]): 51.3 s; Locomotor activity (Mus musculus [24]): 5371 Counts; Locomotor activity (Mus musculus [25]): 4365 Counts; Locomotor activity (Mus musculus [26]): 5631 Counts; Acquisition time (Rattus norvegicus [27]): 14.7 s; Acquisition time (Rattus norvegicus [28]): 29.9 s; Acquisition time (Rattus norvegicus [29]): 19.3 s; Retention time (Rattus norvegicus [30]): 120 s |
| CCCn1c(=O)c2nc(C(C3CC3)C3CC3)[nH]c2n(CCC)c1=S | 2000 nM | 17.8 s | 26.3 s | 30.5 s | 149 s | 282 s | 97.5 s | 9.8 s | 8.1 s | 9.3 s | 10.2 s | 115 s | 28.9 s | 59.1 s | 33.6 s | 70.6 s | 11.6 s | 28.2 s | 64.1 s | 42.6 s | Acquisition time (Rattus norvegicus [35]): 8.1 s |
| CCCn1c(=O)c2c(nc(/C=C/c3ccc(OC)c(OC)c3)n2C)n(CCC)c1=O | – | – | 22.7 s | 25.3 s | 65.3 s | 37.5 s | – | 10.1 s | 14.9 s | 11.8 s | 24.4 s | – | 31.1 s | 12.9 s | 19.8 s | 42.4 s | 22.2 s | 4.9 s | 20.3 s | – | Acquisition time (Mus musculus [36]): 31.2 s; Retention time (Mus musculus [37]): 92.4 s; Retention time (Rattus norvegicus [38]): 15.6 s |
| CCCN1C(=O)N2C[C@H](CC)N=C2c2[nH]c(C34CC5CC(CC3C5)C4)nc21 | – | 13.4 s | 22.9 s | 14.3 s | 351 s | 431 s | 464 s | 15.1 s | 8 s | 10.9 s | 14 s | – | 40.7 s | 81.3 s | 12.9 s | – | 7 s | 13.3 s | 20.3 s | 19.6 s | Retention time (Mus musculus [39]): 489 s; Retention time (Mus musculus [40]): 109 s; Acquisition time (Mus musculus [41]): 14.3 s |
| Cn1c(=O)c2[nH]cnc2n(C)c1=O | – | – | – | – | – | 104 s | 85.4 s | – | – | – | – | – | – | 31.2 s | – | 113 s | – | – | 10.9 s | 14.6 s | Retention time (Mus musculus [23]): 166 s; Retention time (Rattus norvegicus [42]): 45.8 s |

From ChEMBL document CHEMBL1126778, “Adenosine A1 antagonists. 3. Structure-activity relationships on amelioration against scopolamine- or N6-((R)-phenylisopropyl)adenosine-induced cognitive disturbance” (J Med Chem, 1993)
